According to US12281149B2, “Modulators of G-protein coupled receptors” (priority 2021, dated 2025):
*1 amine or outer side, *2 acyl side, *3 side chain or, on linkers, in order; H or OH if unused. Where a SMILES comes first, the peptide text is derived from it. Side-chain parts run from the residue outwards. [ ]: non-standard residue; d: D form. The star is where a group is joined. C20 diacid = O=C(O)CCCCCCCCCCCCCCCCCCC(=O)*; γGlu = O=C(O)[C@H](CCC(=O)[*:2])N[*:1]; X27 = O=C1CC(C(=O)*)(c2ccccc2)CN1; X40 = CC(C)(C(=O)*)n1cc(Cl)cn1; X60 = O=C(C1(c2cccnc2)CCCC1)*; X83 = Cc1ccn(C(C)(C)C(=O)*)n1; X24 = O=C(C1(c2cccnc2)CCC1)*; AEEA = NCCOCCOCC(=O)O; Aib = CC(C)(N)C(=O)O; GABA = NCCCC(=O)O; βAla = NCCC(=O)O

Legend:
[1] = target: T1, GIP receptor (Homo sapiens, UniProt P48546); test: HitHunter cAMP assay, GIP receptor; assay type: cell-based; settings: CHO cells, cAMP; normalized to maximum signal from GIP (high) and DMSO (low); read-out: Emax GIP-1R
T1 sequence (P48546 22-466): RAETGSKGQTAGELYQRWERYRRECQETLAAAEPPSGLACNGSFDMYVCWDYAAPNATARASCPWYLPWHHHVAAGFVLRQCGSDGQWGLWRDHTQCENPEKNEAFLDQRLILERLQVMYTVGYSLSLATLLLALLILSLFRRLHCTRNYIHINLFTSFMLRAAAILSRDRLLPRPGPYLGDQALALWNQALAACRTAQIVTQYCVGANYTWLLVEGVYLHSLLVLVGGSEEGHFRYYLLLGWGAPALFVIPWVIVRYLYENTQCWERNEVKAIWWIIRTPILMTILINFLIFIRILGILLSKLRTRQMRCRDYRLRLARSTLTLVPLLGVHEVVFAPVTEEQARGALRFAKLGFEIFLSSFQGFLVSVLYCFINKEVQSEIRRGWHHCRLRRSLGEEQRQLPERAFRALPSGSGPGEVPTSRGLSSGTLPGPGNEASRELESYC

[2] = target: GLP-1 receptor (Homo sapiens, UniProt P43220); test: HitHunter cAMP assay, GLP-1 receptor; assay type: cell-based; settings: CHO cells, cAMP; normalized to maximum signal from GLP-1 (high) and DMSO (low); read-out: Emax GLP-1R
GLP-1 receptor, sequence (P43220 24-463): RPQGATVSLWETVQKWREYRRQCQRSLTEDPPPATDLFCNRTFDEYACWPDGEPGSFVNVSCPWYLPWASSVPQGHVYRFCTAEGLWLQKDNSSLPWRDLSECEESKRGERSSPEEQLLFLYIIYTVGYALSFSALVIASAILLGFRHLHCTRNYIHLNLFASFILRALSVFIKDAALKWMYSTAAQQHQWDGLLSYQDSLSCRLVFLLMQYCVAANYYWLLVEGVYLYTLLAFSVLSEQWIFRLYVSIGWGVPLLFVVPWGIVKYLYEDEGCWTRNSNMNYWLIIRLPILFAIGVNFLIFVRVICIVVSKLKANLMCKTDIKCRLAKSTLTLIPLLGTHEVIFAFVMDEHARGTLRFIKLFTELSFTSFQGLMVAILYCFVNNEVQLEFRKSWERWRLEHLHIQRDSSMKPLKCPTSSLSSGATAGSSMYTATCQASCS

| SMILES | Emax [1] [%] | Emax [2] [%] |
| --- | --- | --- |
| CC[C@H](C)[C@H](NC(=O)[C@H](CC(C)C)NC(=O)[C@H](Cc1c[nH]c2ccccc12)NC(=O)[C@H](CCC(N)=O)NC(=O)[C@@H](NC(=O)[C@H](Cc1ccccc1)NC(=O)[C@H](C)NC(=O)[C@H](CCCCNC(=O)COCCOCCNC(=O)COCCOCCNC(=O)CC[C@H](NC(=O)CCCCCCCCCCCCCCCCCCC(=O)O)C(=O)O)NC(=O)[C@H](CCC(N)=O)NC(=O)[C@H](C)NC(=O)[C@@H](NC(=O)[C@H](CCCCN)NC(=O)[C@H](CC(=O)O)NC(=O)[C@H](CC(C)C)NC(=O)C(C)(C)NC(=O)[C@@H](NC(=O)[C@H](CO)NC(=O)[C@H](Cc1ccc(O)cc1)NC(=O)[C@H](CC(=O)O)NC(=O)[C@H](CO)NC(=O)[C@@H](NC(=O)[C@H](Cc1ccccc1)NC(=O)[C@@H](NC(=O)CNC(=O)[C@H](CCC(=O)O)NC(=O)CCCNC(=O)C1(c2ccccc2)CNC(=O)C1)[C@@H](C)O)[C@@H](C)O)[C@@H](C)CC)[C@@H](C)CC)C(C)C)C(=O)N[C@@H](C)C(=O)NCC(=O)NCC(=O)N1CCC[C@H]1C(=O)N[C@@H](CO)C(=O)N[C@@H](CO)C(=O)NCC(=O)N[C@@H](C)C(=O)N1CCC[C@H]1C(=O)N1CCC[C@H]1C(=O)N1CCC[C@H]1C(=O)N[C@@H](CO)C(N)=O (stereo partly drawn) [Compound 249] ({X27-GABA}-EGTFTSDYSI[Aib]LDKIAQK([AEEA-AEEA-γGlu-C20 diacid])AFVQWLIAGGPSSGAPPPS-NH2; C-terminus assumed) | 104 | 97 |
| CC[C@H](C)[C@H](NC(=O)[C@H](CC(C)C)NC(=O)[C@H](Cc1c[nH]c2ccccc12)NC(=O)[C@H](CCC(N)=O)NC(=O)[C@@H](NC(=O)[C@H](Cc1ccccc1)NC(=O)[C@H](C)NC(=O)[C@H](CCCCNC(=O)COCCOCCNC(=O)COCCOCCNC(=O)CC[C@H](NC(=O)CCCCCCCCCCCCCCCCCCC(=O)O)C(=O)O)NC(=O)[C@H](CCC(N)=O)NC(=O)[C@H](C)NC(=O)[C@@H](NC(=O)[C@H](CCCCN)NC(=O)[C@H](CC(=O)O)NC(=O)[C@H](CC(C)C)NC(=O)C(C)(C)NC(=O)[C@@H](NC(=O)[C@H](CO)NC(=O)[C@H](Cc1ccc(O)cc1)NC(=O)[C@H](CC(=O)O)NC(=O)[C@H](CO)NC(=O)[C@@H](NC(=O)[C@H](Cc1ccccc1)NC(=O)[C@@H](NC(=O)CNC(=O)[C@H](CCC(=O)O)NC(=O)CCCNC(=O)C(C)(C)n1cc(Cl)cn1)[C@@H](C)O)[C@@H](C)O)[C@@H](C)CC)[C@@H](C)CC)C(C)C)C(=O)N[C@@H](C)C(=O)NCC(=O)NCC(=O)N1CCC[C@H]1C(=O)N[C@@H](CO)C(=O)N[C@@H](CO)C(=O)NCC(=O)N[C@@H](C)C(=O)N1CCC[C@H]1C(=O)N1CCC[C@H]1C(=O)N1CCC[C@H]1C(=O)N[C@@H](CO)C(N)=O [Compound 248] ({X40-GABA}-EGTFTSDYSI[Aib]LDKIAQK([AEEA-AEEA-γGlu-C20 diacid])AFVQWLIAGGPSSGAPPPS-NH2; C-terminus assumed) | 104 | 90 |
| CC[C@H](C)[C@H](NC(=O)[C@H](CC(C)C)NC(=O)[C@H](Cc1c[nH]c2ccccc12)NC(=O)[C@H](CCC(N)=O)NC(=O)[C@@H](NC(=O)[C@H](Cc1ccccc1)NC(=O)[C@H](C)NC(=O)[C@H](CCCCNC(=O)COCCOCCNC(=O)COCCOCCNC(=O)CC[C@H](NC(=O)CCCCCCCCCCCCCCCCCCC(=O)O)C(=O)O)NC(=O)[C@H](CCC(N)=O)NC(=O)[C@H](C)NC(=O)[C@@H](NC(=O)[C@H](CCCCN)NC(=O)[C@H](CC(=O)O)NC(=O)[C@H](CC(C)C)NC(=O)C(C)(C)NC(=O)[C@@H](NC(=O)[C@H](CO)NC(=O)[C@H](Cc1ccc(O)cc1)NC(=O)[C@H](CC(=O)O)NC(=O)[C@H](CO)NC(=O)[C@@H](NC(=O)[C@H](Cc1ccccc1)NC(=O)[C@@H](NC(=O)CNC(=O)[C@H](CCC(=O)O)NC(=O)CCNC(=O)C(C)(C)n1ccc(C)n1)[C@@H](C)O)[C@@H](C)O)[C@@H](C)CC)[C@@H](C)CC)C(C)C)C(=O)N[C@@H](C)C(=O)NCC(=O)NCC(=O)N1CCC[C@H]1C(=O)N[C@@H](CO)C(=O)N[C@@H](CO)C(=O)NCC(=O)N[C@@H](C)C(=O)N1CCC[C@H]1C(=O)N1CCC[C@H]1C(=O)N1CCC[C@H]1C(=O)N[C@@H](CO)C(N)=O [Compound 253] ({X83-βAla}-EGTFTSDYSI[Aib]LDKIAQK([AEEA-AEEA-γGlu-C20 diacid])AFVQWLIAGGPSSGAPPPS-NH2; C-terminus assumed) | 105 | 94 |
| CC[C@H](C)[C@H](NC(=O)[C@H](CC(C)C)NC(=O)[C@H](Cc1c[nH]c2ccccc12)NC(=O)[C@H](CCC(N)=O)NC(=O)[C@@H](NC(=O)[C@H](Cc1ccccc1)NC(=O)[C@H](C)NC(=O)[C@H](CCCCNC(=O)COCCOCCNC(=O)COCCOCCNC(=O)CC[C@H](NC(=O)CCCCCCCCCCCCCCCCCCC(=O)O)C(=O)O)NC(=O)[C@H](CCC(N)=O)NC(=O)[C@H](C)NC(=O)[C@@H](NC(=O)[C@H](CCCCN)NC(=O)[C@H](CC(=O)O)NC(=O)[C@H](CC(C)C)NC(=O)C(C)(C)NC(=O)[C@@H](NC(=O)[C@H](CO)NC(=O)[C@H](Cc1ccc(O)cc1)NC(=O)[C@H](CC(=O)O)NC(=O)[C@H](CO)NC(=O)[C@@H](NC(=O)[C@H](Cc1ccccc1)NC(=O)[C@@H](NC(=O)CNC(=O)[C@H](CCC(=O)O)NC(=O)CCNC(=O)C1(c2ccccc2)CNC(=O)C1)[C@@H](C)O)[C@@H](C)O)[C@@H](C)CC)[C@@H](C)CC)C(C)C)C(=O)N[C@@H](C)C(=O)NCC(=O)NCC(=O)N1CCC[C@H]1C(=O)N[C@@H](CO)C(=O)N[C@@H](CO)C(=O)NCC(=O)N[C@@H](C)C(=O)N1CCC[C@H]1C(=O)N1CCC[C@H]1C(=O)N1CCC[C@H]1C(=O)N[C@@H](CO)C(N)=O (stereo partly drawn) [Compound 250] ({X27-βAla}-EGTFTSDYSI[Aib]LDKIAQK([AEEA-AEEA-γGlu-C20 diacid])AFVQWLIAGGPSSGAPPPS-NH2; C-terminus assumed) | 89 | 90 |
| CC[C@H](C)[C@H](NC(=O)[C@H](CC(C)C)NC(=O)[C@H](Cc1c[nH]c2ccccc12)NC(=O)[C@H](CCC(N)=O)NC(=O)[C@@H](NC(=O)[C@H](Cc1ccccc1)NC(=O)[C@H](C)NC(=O)[C@H](CCCCNC(=O)COCCOCCNC(=O)COCCOCCNC(=O)CC[C@H](NC(=O)CCCCCCCCCCCCCCCCCCC(=O)O)C(=O)O)NC(=O)[C@H](CCC(N)=O)NC(=O)[C@H](C)NC(=O)[C@@H](NC(=O)[C@H](CCCNC(=N)N)NC(=O)[C@H](CC(=O)O)NC(=O)[C@H](CC(C)C)NC(=O)C(C)(C)NC(=O)[C@@H](NC(=O)[C@H](CO)NC(=O)[C@H](Cc1ccc(O)cc1)NC(=O)[C@H](CC(=O)O)NC(=O)[C@H](CO)NC(=O)[C@@H](NC(=O)[C@H](Cc1ccccc1)NC(=O)[C@@H](NC(=O)CNC(=O)[C@H](CCC(=O)O)NC(=O)CCNC(=O)C1(c2cccnc2)CCCC1)[C@@H](C)O)[C@@H](C)O)[C@@H](C)CC)[C@@H](C)CC)C(C)C)C(=O)N[C@@H](C)C(=O)NCC(=O)NCC(=O)N1CCC[C@H]1C(=O)N[C@@H](CO)C(=O)N[C@@H](CO)C(=O)NCC(=O)N[C@@H](C)C(=O)N1CCC[C@H]1C(=O)N1CCC[C@H]1C(=O)N1CCC[C@H]1C(=O)N[C@@H](CO)C(N)=O [Compound 243] ({X60-βAla}-EGTFTSDYSI[Aib]LDRIAQK([AEEA-AEEA-γGlu-C20 diacid])AFVQWLIAGGPSSGAPPPS-NH2; C-terminus assumed) | 110 | 109 |
| CC[C@H](C)[C@H](NC(=O)[C@H](CC(C)C)NC(=O)[C@H](Cc1c[nH]c2ccccc12)NC(=O)[C@H](CCC(N)=O)NC(=O)[C@@H](NC(=O)[C@H](Cc1ccccc1)NC(=O)[C@H](C)NC(=O)[C@H](CCCCNC(=O)COCCOCCNC(=O)COCCOCCNC(=O)CC[C@H](NC(=O)CCCCCCCCCCCCCCCCCCC(=O)O)C(=O)O)NC(=O)[C@H](CCC(N)=O)NC(=O)[C@H](C)NC(=O)[C@@H](NC(=O)[C@H](CCCCN)NC(=O)[C@H](CC(=O)O)NC(=O)[C@H](CC(C)C)NC(=O)C(C)(C)NC(=O)[C@@H](NC(=O)[C@H](CO)NC(=O)[C@H](Cc1ccc(O)cc1)NC(=O)[C@H](CC(=O)O)NC(=O)[C@H](CO)NC(=O)[C@@H](NC(=O)[C@H](Cc1ccccc1)NC(=O)[C@@H](NC(=O)CNC(=O)[C@H](CCC(=O)O)NC(=O)CCNC(=O)C1(c2cccnc2)CCC1)[C@@H](C)O)[C@@H](C)O)[C@@H](C)CC)[C@@H](C)CC)C(C)C)C(=O)N[C@@H](C)C(=O)NCC(=O)NCC(=O)N1CCC[C@H]1C(=O)N[C@@H](CO)C(=O)N[C@@H](CO)C(=O)NCC(=O)N[C@@H](C)C(=O)N1CCC[C@H]1C(=O)N1CCC[C@H]1C(=O)N1CCC[C@H]1C(=O)N[C@@H](CO)C(N)=O [Compound 255] ({X24-βAla}-EGTFTSDYSI[Aib]LDKIAQK([AEEA-AEEA-γGlu-C20 diacid])AFVQWLIAGGPSSGAPPPS-NH2; C-terminus assumed) | 99 | 90 |
